Literature values as cited in US20240368000A1, “CARBON REMOVAL FROM SEAWATER AND OTHER LIQUIDS USING PHOTOACTIVE COMPOUNDS” (University of Washington, priority 2021, published 2024).

Conditions: ground (dark) state of the photoacid; value from Wimberger et al., Chem. Commun. 2022, 58(37), 5610-5613

pKa-Dark: 7.33
Structure (SMILES): COc1ccc2c(c1)C(C)(C)C(/C=C\c1ccccc1O)=[N+]2CCCC[S@SP3](=O)(=O)[O-] [merocyanine photoacid]
